The term Dmax denotes the largest share of the target that was removed. A low value points to a partial loss of target. The term DC50 denotes the concentration giving 50% degradation.

The target of the test is T1, BCL-XL (Homo sapiens, UniProt Q07817).
T1 construct: endogenous in cells; host or cells: MOLT-4
The experiment in a line: Bcl-xL ELISA degradation in MOLT-4 cells, 6 h. It is filed as cell-based. To be noted: for DC50: read-out: Bcl-xL ELISA in MOLT-4 degradation 6 h: Mean external-Abs DC50. Here is the method:
The letter codes for BCL-XL DC50 include: A (<0.01 μM); B (0.01-0.1 μM); C (>[…]); D (>0.5-1.0 μM); and E (>1.0 μM). The letter codes for Dmax % include A (>75%); B (50 to 75%); C (<50%).
A general note: An ELISA detects its analyte on a solid surface through an enzyme-linked reagent.

Bounds are passed on as bounds.

T1 sequence (Q07817 whole entry): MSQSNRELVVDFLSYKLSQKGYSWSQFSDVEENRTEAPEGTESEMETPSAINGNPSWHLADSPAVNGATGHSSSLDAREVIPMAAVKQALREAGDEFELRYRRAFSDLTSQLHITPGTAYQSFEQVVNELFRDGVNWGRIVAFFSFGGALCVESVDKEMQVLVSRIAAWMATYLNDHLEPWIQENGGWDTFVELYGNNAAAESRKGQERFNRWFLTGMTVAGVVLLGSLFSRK

Consider `C#Cc1ccc(CNC(=O)[C@@H]2C[C@@H](O)CN2C(=O)[C@@H](c2cc(N3CCN(c4ccc(S(=O)(=O)NC(=O)c5nc(N6CCc7cccc(C(=O)Nc8nc9ccccc9s8)c7C6)ccc5-c5cnn(CC6CCCCC6)c5C)cc4)CC3)no2)C(C)C)cc1` [I-262], for which the Dmax is more than 75% and the DC50 was less than 0.01 µM.

With `Cc1ncsc1-c1ccc([C@H](C)NC(=O)[C@@H]2C[C@@H](O)CN2C(=O)[C@@H](c2cc(OC3CN(CCCS(=O)(=O)NC(=O)c4nc(N5CCc6cccc(C(=O)Nc7nc8ccccc8s7)c6C5)ccc4-c4cnn(CC5CCCCC5)c4C)C3)no2)C(C)C)cc1` [I-271], the Dmax was more than 75% and the DC50 is 0.01 to 0.1 µM.

Consider `Cc1ncsc1-c1ccc([C@H](C)NC(=O)[C@@H]2C[C@@H](O)CN2C(=O)[C@@H](NC(=O)C2CCN(c3ccc(S(=O)(=O)NC(=O)c4nc(N5CCc6cccc(C(=O)Nc7nc8ccccc8s7)c6C5)ccc4-c4cnn(CC5CCCCC5)c4C)c(Cl)c3)CC2)C(C)(C)C)cc1` [I-276], for which the Dmax was more than 75% and the DC50 is 0.01 to 0.1 µM.

For `Cc1ncsc1-c1ccc(CNC(=O)[C@@H]2C[C@@H](O)CN2C(=O)[C@@H](NC(=O)C2(F)CC2)C(C)(C)C)c(N2CCC(N3CCC(NC(=O)c4nc(N5CCc6cccc(C(=O)Nc7nc8ccccc8s7)c6C5)ccc4-c4cnn(CC5CCCCC5)c4C)CC3)CC2)c1` [I-270], the Dmax is less than 50% and the DC50 was more than 1 µM.

As for `Cc1ncsc1-c1ccc([C@H](C)NC(=O)[C@@H]2C[C@@H](O)CN2C(=O)C(c2cc(N3CC(CN4CCC(NC(=O)c5nc(N6CCc7cccc(C(=O)Nc8nc9ccccc9s8)c7C6)ccc5-c5cnn(CC6CCCCC6)c5C)CC4)C3)no2)C(C)C)cc1` (stereo partly drawn) [I-239], the Dmax was less than 50%.

Compound `Cc1ncsc1-c1ccc(CNC(=O)[C@@H]2C[C@@H](O)CN2C(=O)[C@@H](NC(=O)C2(F)CC2)C(C)(C)C)c(OC2CCN(CC[C@H](CSc3ccccc3)Nc3ccc(S(=O)(=O)NC(=O)c4ccc(N5CCN(CC6=C(c7ccc(Cl)cc7)CCC(C)(C)C6)CC5)cc4)cc3S(=O)(=O)C(F)(F)F)CC2)c1` [I-281] showed a Dmax of less than 50%.

As for `Cc1ncsc1-c1ccc([C@H](C)NC(=O)[C@@H]2C[C@@H](O)CN2C(=O)[C@@H](NC(=O)N2CCC(N3CCN(C(=O)c4nc(N5CCc6cccc(C(=O)Nc7nc8ccccc8s7)c6C5)ccc4-c4cnn(CC5CCCCC5)c4C)CC3)CC2)C(C)(C)C)cc1` [I-247], the Dmax is less than 50% and the DC50 was more than 1 µM.

Consider `Cc1ncsc1-c1ccc(CNC(=O)[C@@H]2C[C@@H](O)CN2C(=O)[C@@H](NC(=O)C2(F)CC2)C(C)(C)C)c(OC2CCN(CC3CCN(C(=O)c4nc(N5CCc6cccc(C(=O)Nc7nc8ccccc8s7)c6C5)ccc4-c4cnn(CC5CCCCC5)c4C)CC3)CC2)c1` [I-227], for which the Dmax is less than 50% and the DC50 was more than 1 µM.

For `Cc1ncsc1-c1ccc(CNC(=O)[C@@H]2C[C@@H](O)CN2C(=O)[C@@H](NC(=O)C2(F)CC2)C(C)(C)C)c(OCCCC(=O)N2CCN(CC#Cc3ccc(OCCCc4sc(N5CCc6cccc(C(=O)Nc7nc8ccccc8s7)c6C5)nc4C(=O)O)c(F)c3)CC2)c1` [I-223], the Dmax fell in the range of 50 to 75% and the DC50 lay within 0.01 to 0.1 µM.

As to `Cc1cc(S(=O)(=O)NC(=O)c2nc(N3CCc4cccc(C(=O)Nc5nc6ccccc6s5)c4C3)ccc2-c2cnn(CC3CCCCC3)c2C)ccc1N1CCC(C(=O)N[C@H](C(=O)N2C[C@H](O)C[C@H]2C(=O)N[C@@H](C)c2ccc(-c3scnc3C)cc2)C(C)(C)C)CC1` [I-273], the Dmax was more than 75% and the DC50 is less than 0.01 µM.

For the compound `C#Cc1ccc([C@H](C)NC(=O)[C@@H]2C[C@@H](O)CN2C(=O)[C@@H](NC(=O)C2CCN(c3ccc(S(=O)(=O)NC(=O)c4nc(N5CCc6cccc(C(=O)Nc7nc8ccccc8s7)c6C5)ccc4-c4cnn(CC5CCCCC5)c4C)cc3)CC2)C(C)(C)C)cc1` [I-253], the Dmax is more than 75% and the DC50 is less than 0.01 µM.

For `C#Cc1ccc([C@H](CO)NC(=O)[C@@H]2C[C@@H](O)CN2C(=O)C(c2cc(OC3CCN(CCCS(=O)(=O)NC(=O)c4nc(N5CCc6cccc(C(=O)Nc7nc8ccccc8s7)c6C5)ccc4-c4cnn(CC5CCCCC5)c4C)CC3)no2)C(C)C)cc1` (stereo partly drawn) [I-228], the Dmax is 50 to 75% and the DC50 is 0.1 to 0.5 µM.

Consider `Cc1ncsc1-c1ccc([C@H](C)NC(=O)[C@@H]2C[C@@H](O)CN2C(=O)[C@@H](NC(=O)C2CCN(c3ccc(S(=O)(=O)NC(=O)c4nc(N5CCc6cccc(C(=O)Nc7nc8ccccc8s7)c6C5)ccc4-c4cnn(CC5CCCCC5)c4C)cc3Cl)CC2)C(C)(C)C)cc1` [I-274], for which the Dmax lay within 50 to 75% and the DC50 was in the range of 0.01 to 0.1 µM.

For the compound `Cc1cc([C@@H](C(=O)N2C[C@H](O)C[C@H]2C(=O)NCc2ccc(-c3scnc3C)cc2OCCCCCCN(C)C(=O)c2nc(N3CCc4cccc(C(=O)Nc5nc6ccccc6s5)c4C3)ccc2-c2cnn(CC3CCCCC3)c2C)C(C)C)on1` [I-264], the Dmax was 50 to 75% and the DC50 is 0.01 to 0.1 µM.

Turning to `Cc1ncsc1-c1ccc([C@H](C)NC(=O)[C@@H]2C[C@@H](O)CN2C(=O)[C@@H](NC(=O)N2CCN(c3ccc(S(=O)(=O)NC(=O)c4nc(N5CCc6cccc(C(=O)Nc7nc8ccccc8s7)c6C5)ccc4-c4cnn(CC5CCCCC5)c4C)cc3)CC2)C(C)(C)C)cc1` [I-261], the Dmax is more than 75% and the DC50 was 0.01 to 0.1 µM.

In the case of `C#Cc1ccc(CNC(=O)[C@@H]2C[C@@H](O)CN2C(=O)[C@@H](NC(=O)C2CCN(c3ccc(S(=O)(=O)NC(=O)c4nc(N5CCc6cccc(C(=O)Nc7nc8ccccc8s7)c6C5)ccc4-c4cnn(CC5CCCCC5)c4C)cc3)CC2)C(C)(C)C)c(OCCO)c1` [I-259], the Dmax was more than 75% and the DC50 fell in the range of 0.01 to 0.1 µM.

Compound `Cc1ncsc1-c1ccc([C@H](C)NC(=O)[C@@H]2C[C@@H](O)CN2C(=O)C(c2cc(OC3CCN(c4ccc(S(=O)(=O)NC(=O)c5nc(N6CCc7cccc(C(=O)Nc8nc9ccccc9s8)c7C6)ccc5-c5cnn(CC6CCCCC6)c5C)cc4)CC3)no2)C(C)C)cc1` (stereo partly drawn) [I-231] displayed a Dmax of less than 50%.

Regarding `C#Cc1ccc(CNC(=O)[C@@H]2C[C@@H](O)CN2C(=O)[C@@H](NC(=O)C2CCN(c3ccc(S(=O)(=O)NC(=O)c4nc(N5CCc6cccc(C(=O)Nc7nc8ccccc8s7)c6C5)ccc4-c4cnn(CC5CCCCC5)c4C)cc3)CC2)C(C)(C)C)c(OC)c1` [I-254], the Dmax was more than 75% and the DC50 was less than 0.01 µM.

`Cc1ncsc1-c1ccc([C@H](C)NC(=O)[C@@H]2C[C@@H](O)CN2C(=O)[C@@H](NC(=O)C2CCN(c3ccc(S(=O)(=O)NC(=O)c4nc(N5CCc6cccc(C(=O)Nc7nc8ccccc8s7)c6C5)ccc4-c4cnn(CC5(CCCN6CCN(C)CC6)CCCCC5)c4C)cc3)CC2)C(C)(C)C)cc1` [I-256]: the Dmax fell in the range of 50 to 75% and the DC50 lay within 0.1 to 0.5 µM.

With `Cc1ncsc1-c1ccc([C@H](C)NC(=O)[C@@H]2C[C@@H](O)CN2C(=O)[C@@H](NC(=O)CCCCN(C)CCCS(=O)(=O)NC(=O)c2nc(N3CCc4cccc(C(=O)Nc5nc6ccccc6s5)c4C3)ccc2-c2cnn(CC3CCCCC3)c2C)C(C)(C)C)cc1` [I-232], the Dmax fell in the range of 50 to 75% and the DC50 lay in the range of 0.1 to 0.5 µM.

In the case of `Cc1ncsc1-c1ccc([C@H](C)NC(=O)[C@@H]2C[C@@H](O)CN2C(=O)[C@@H](NC(=O)C2CCN(c3ccc(S(=O)(=O)NC(=O)c4nc(N5CCc6cccc(C(=O)Nc7nc8ccccc8s7)c6C5)ccc4-c4cnn(CC(C)C)c4C)cc3)CC2)C(C)(C)C)cc1` [I-240], the Dmax is more than 75% and the DC50 was 0.01 to 0.1 µM.

As to `Cc1cc([C@@H](C(=O)N2C[C@H](O)C[C@H]2C(=O)NCc2ccc(-c3scnc3C)cc2OCCN(C)C2CCN(C(=O)c3nc(N4CCc5cccc(C(=O)Nc6nc7ccccc7s6)c5C4)ccc3-c3cnn(CC4CCCCC4)c3C)CC2)C(C)C)on1` [I-266], the Dmax fell in the range of 50 to 75% and the DC50 is 0.1 to 0.5 µM.

Turning to `Cc1ncsc1-c1ccc(CNC(=O)N2C[C@@H](O)CC2C(=O)[C@@H](NC(=O)C2(F)CC2)C(C)(C)C)c(O[C@H]2C[C@H](N3CCC(NC(=O)c4nc(N5CCc6cccc(C(=O)Nc7nc8ccccc8s7)c6C5)ccc4-c4cnn(CC5CCCCC5)c4C)CC3)C2)c1` (stereo partly drawn) [I-269], the Dmax is less than 50% and the DC50 was more than 1 µM.

`Cc1cc([C@@H](C(=O)N2C[C@H](O)C[C@H]2C(=O)NCc2ccc(-c3scnc3C)cc2OCCCN2CCN(C(=O)c3nc(N4CCc5cccc(C(=O)Nc6nc7ccccc7s6)c5C4)ccc3-c3cnn(CC4CCCCC4)c3C)CC2)C(C)C)on1` [I-268]: the Dmax was more than 75% and the DC50 was less than 0.01 µM.

For `Cc1ncsc1-c1ccc([C@H](C)NC(=O)[C@@H]2C[C@@H](O)CN2C(=O)[C@H](c2cc(N3CC(N4CCC(NC(=O)c5nc(N6CCc7cccc(C(=O)Nc8nc9ccccc9s8)c7C6)ccc5-c5cnn(CC6CCCCC6)c5C)CC4)C3)no2)C(C)C)cc1` [I-235], the Dmax is less than 50%.

As to `Cc1cc(N(C)c2ccc(-c3cnn(CC4CCCCC4)c3C)c(C(=O)NS(=O)(=O)c3ccc(N4CCC(C(=O)N[C@H](C(=O)N5C[C@H](O)C[C@H]5C(=O)N[C@@H](C)c5ccc(-c6scnc6C)cc5)C(C)(C)C)CC4)cc3)n2)nnc1Nc1nc2ccccc2s1` [I-244], the Dmax was more than 75% and the DC50 is 0.01 to 0.1 µM.

Regarding `Cc1cc([C@@H](C(=O)N2C[C@H](O)C[C@H]2C(=O)NCc2ccc(-c3scnc3C)cc2OCCN2CCN(C(=O)c3nc(N4CCc5cccc(C(=O)Nc6nc7ccccc7s6)c5C4)ccc3-c3cnn(CC4CCCCC4)c3C)CC2)C(C)C)on1` [I-267], the Dmax was less than 50% and the DC50 is more than 1 µM.

Regarding `Cc1ncsc1-c1ccc([C@H](C)NC(=O)[C@@H]2C[C@@H](O)CN2C(=O)[C@@H](NC(=O)C2CCN(c3ccc(S(=O)(=O)NC(=O)c4nc(N5CCc6cccc(C(=O)Nc7nc8ccccc8s7)c6C5)ccc4-c4cnn(CC5(CCC(=O)O)CCCCC5)c4C)cc3)CC2)C(C)(C)C)cc1` [I-255], the greatest degradation seen (Dmax) was 50 to 75% and the DC50 was in the range of 0.1 to 0.5 µM.

Take `Cc1ncsc1-c1ccc(CNC(=O)[C@@H]2C[C@@H](O)CN2C(=O)[C@@H](NC(=O)C2CCN(c3ccc(S(=O)(=O)NC(=O)c4nc(N5CCc6cccc(C(=O)Nc7nc8ccccc8s7)c6C5)ccc4-c4cnn(CC5CCCCC5)c4C)cc3)CC2)C(C)(C)C)cc1` [I-252]: the Dmax is more than 75% and the DC50 lay in the range of 0.01 to 0.1 µM.

Values taken from patent US20250197387A1, “BCL-XL DEGRADERS AND USES THEREOF” (Kymera Therapeutics, Inc., priority 2021, published 2025).
